Source: patent publication US20230340419A1, “METHODS FOR GENERATION OF MOUSE AND HUMAN URETERIC BUD ORGANOIDS AND COLLECTING DUCT ORGANOIDS” (University of Southern California, priority 2020, published 2023)

How the values were obtained:
Format in all cases: cell-based, mouse
Wnt11-RFP UB organoid [1] = test: Stage III 1st round screening of growth factors and small molecules for UB organoid culture condition; conditions: for Wnt11-RFP / Organoid growth: reagent added to FGF9 + C3 + TTNPB + GDNF, compared to that control group; for Effect when used individually: individual versus combinatorial use of JAKI and SB202190
From the text: We employed this Wnt11-RFP reporter system as a readout to screen for a culture condition that maintained the progenitor identity of UPCs in vitro. T-shaped UBs were manually isolated from E11.5 kidneys of Wnt11-RFP mice, and immediately embedded into Matrigel to set up a 3D culture platform that supported epithelial branching. In this 3D culture format, built on previous efforts towards the ex vivo culture of UB, hundreds of different combinations of growth factors and small molecules were tested (see also the Materials and Techniques section below for details under subheading “Screening for optimal UB culture condition”).
We systematically screened the optimal UB culture condition in four different stages (Stages I-IV).
In Stage III, based on the optimized recipe consisting of FGF9, TTNPB, CHIR99021 (3 μM) and GDNF, we preformed our 1st round of screening of growth factors and small molecules targeting major developmental pathways (e.g. TGF-β, BMP, Wnt, FGF, Hedgehog and Notch) and others. The branching morphogenesis, growth rate and Wnt11-RFP were recorded as readouts (Table 1). […] Representative images were taken at least for LDN193189, A83-01, and R-Spondin 1. These individual hits were then subjected to a 2nd round of screening to test their effects in various combinations, eventually leading to the identification of the optimal UB progenitor culture medium UBCM consisting of FGF9, TTNPB, CHIR99021 (3 μM), GDNF, LDN193189, A83-01, R-Spondin1, JAKI and SB202190.

UB organoids = test: 2nd round of CD differentiation condition screening (qRT-PCR of Aqp2 and Foxi1); conditions: for Foxi1 expression / Aqp2 expression: qRT-PCR, 7 days, under hBI+FGF9+Y27632 condition
Method: The functions of the mature renal CD system are carried out by two major cell populations that are intermingled throughout the entire CD network. The more abundant principal cells (PCs) concentrate the urine and regulate Na^+/K^+ homeostasis via water and Na^+/K^+ transporters. The less abundant α- and β-intercalated cells (ICs) regulate normal acid-base homeostasis via secretion of H^+ or HCO3^− into the urine. The absence of an in vitro system recapitulating PC and IC development in an appropriate 3D context, constrains physiological exploration, disease modeling and drug screening on the renal CD system. With this limitation in mind, we developed a screen to establish conditions supporting the differentiation of CD organoids, assaying expression of Aqp2 and Foxi1, definitive markers for PC and IC lineages, respectively, by quantitative reverse transcription PCR (qRT-PCR), following 7 days of culture under variable but defined culture conditions (FIG. 2A).
Agonists or antagonists targeting major developmental pathways (e.g. TGF-β, BMP, Wnt, FGF, Hedgehog and Notch) were tested, together with hormonal inputs known to regulate PC or IC activity (aldosterone and vasopressin).

Wnt11-RFP UB organoid [2] = test: Withdrawal of individual components from UBCM (Stage IV validation); conditions: component withdrawn from UBCM
From the text: To determine whether UBCM culture conditions enabled clonal growth from a single UPC, dissociated E11.5 UBs were embedded at clonal density in Matrigel and cultured in UBCM medium. Around 30% of the single cells self-organized into E11.5 UB-like budding structures within 5 days, though a smaller percentage (3-5%) maintained Wnt11-RFP (FIG. 1G), an efficiency similar to clonal organoid formation for Lgr5^+ intestinal stem cells. Importantly, the clonally-derived Wnt11-RFP^+ budding structures were identical to intact E11.5 UB-derived organoids in both branching morphology and growth rate (Table 3, FIG. 1H).
Lastly, in Stage IV, we asked whether each of the components in UBCM was essential.

Wnt11-RFP UB = test: Stage II optimisation of individual UB medium components; conditions: titrated at 1, 3 and 6 μM
From the text: In Stage II, we optimized the individual medium components employed by Yuri et al. (FGF1, RA, CHIR99021, and GDNF). We first asked if each individual factor was necessary in the medium. […] Then we further optimized these factors. RA is known to be unstable in tissue culture, so we replaced it with another widely used small molecule RA substitute TTNPB. CHIR99021 was used at 1p M by Yuri et al., but based on our own experiences and literature, different doses of CHIR99021 often have different biological effects. So we titrated it from 1p M, 3p M, to 6 μM, from which we identified 3 μM to be the optimal concentration. […] GDNF was unchanged in the medium, considering its essential role in maintaining the UB progenitor population in vitro and in vivo.

Cc1cccc(-c2nn(C(=S)Nc3ccccc3)cc2-c2ccnc3ccccc23)n1 [A83-01]
Wnt11-RFP (Wnt11-RFP UB organoid [1]): Better

NC(=O)c1ncn([C@@H]2O[C@H](CO)[C@@H](O)[C@H]2O)c1N [AICAR]
Wnt11-RFP (Wnt11-RFP UB organoid [1]): Slighty Better

C[C@]12CCC(=O)C=C1CC[C@@H]1[C@@H]2[C@@H](O)C[C@]2(C=O)[C@@H](C(=O)CO)CC[C@@H]12 [Aldosterone]
Foxi1 expression (UB organoids): preferential increase

Cc1c[nH]c(-c2cnc(NCCNc3ccc(C#N)cn3)nc2-c2ccc(Cl)cc2Cl)n1 [CHIR99021]
Effect of withdrawal of the component from UBCM on organoid growth (Wnt11-RFP UB organoid [2]): growth arrest
Optimal concentration (Wnt11-RFP UB): 3 µM

C[C@H](NC(=O)Cc1cc(F)cc(F)c1)C(=O)N[C@H](C(=O)OC(C)(C)C)c1ccccc1 [DAPT]
Wnt11-RFP (Wnt11-RFP UB organoid [1]): Better
Aqp2 expression (UB organoids): dramatically increased
Foxi1 expression (UB organoids): dramatically increased

CC(C)(C)c1nc2c3cc[nH]c(=O)c3c3cc(F)ccc3c2[nH]1 [JAKI]
Effect when used individually (Wnt11-RFP UB organoid [1]): only marginal effects
Wnt11-RFP (Wnt11-RFP UB organoid [1]): Slightly Better
Aqp2 expression (UB organoids): dramatically increased
Foxi1 expression (UB organoids): dramatically increased

c1ccc2c(-c3cnn4cc(-c5ccc(N6CCNCC6)cc5)cnc34)ccnc2c1 [LDN193189]
Wnt11-RFP (Wnt11-RFP UB organoid [1]): Better

CN(C)C(=N)NC(=N)N [Melformin]
Wnt11-RFP (Wnt11-RFP UB organoid [1]): Slightly Better

O=C(NOC[C@H](O)CO)c1ccc(F)c(F)c1Nc1ccc(I)cc1F [PD0325901]
Organoid growth (Wnt11-RFP UB organoid [1]): No growth
Wnt11-RFP (Wnt11-RFP UB organoid [1]): Dead at D 6
Aqp2 expression (UB organoids): dramatically increased
Foxi1 expression (UB organoids): dramatically increased

Oc1ccc(-c2nc(-c3ccncc3)c(-c3ccc(F)cc3)[nH]2)cc1 [S6202190]
Effect when used individually (Wnt11-RFP UB organoid [1]): only marginal effects
Wnt11-RFP (Wnt11-RFP UB organoid [1]): Slightly Better

NC(=O)CC[C@@H]1NC(=O)[C@H](Cc2ccccc2)NC(=O)[C@H](Cc2ccc(O)cc2)NC(=O)[C@@H](N)CSSC[C@@H](C(=O)N2CCC[C@H]2C(=O)N[C@@H](CCCN=C(N)N)C(=O)NCC(N)=O)NC(=O)[C@H](CC(N)=O)NC1=O [Vasopressin]
Aqp2 expression (UB organoids): enhanced

CN1C(=O)c2sccc2N(C)c2nc(Nc3ccc(S(N)(=O)=O)cc3)ncc21 [XMU-MP-1]
Organoid growth (Wnt11-RFP UB organoid [1]): No growth

Activin A: growth factor tested in screening
Organoid growth (Wnt11-RFP UB organoid [1]): Slower
Wnt11-RFP (Wnt11-RFP UB organoid [1]): Worse
Note (UB organoids): Dramatic

EGF: epidermal growth factor (NSDSECPLSHDGYCLHDGVCMYIEALDKYACNCVVGYIGERCQYRDLKWWELR; Epidermal growth factor; UniProt P01133 971-1023, looked up)
Wnt11-RFP (Wnt11-RFP UB organoid [1]): Better

FGF2: member of the FGF family
Wnt11-RFP (Wnt11-RFP UB organoid [1]): Worse

FGF20: member of the FGF family
Wnt11-RFP (Wnt11-RFP UB organoid [1]): Worse

Heparin
Wnt11-RFP (Wnt11-RFP UB organoid [1]): Slightly Better

SCF: growth factor tested in screening
Organoid growth (Wnt11-RFP UB organoid [1]): Slightly better
Wnt11-RFP (Wnt11-RFP UB organoid [1]): Better

Verteporfin
Organoid growth (Wnt11-RFP UB organoid [1]): Dead
